Reference: paper PMC7409197, “Adenosine Receptors as Neuroinflammation Modulators: Role of A1 Agonists and A2A Antagonists” (Cells, 2020)

Legend:
Assay type in all cases: cell-based, rat
mixed glial cells [1] = test: CellTiter 96 AQueous One (MTS) cell viability, ligands alone, mixed glial cells
Protocol: (§1) Newborn male Wistar rats were sacrificed and mixed glial cell cultures were obtained from the cerebral cortices. Cerebral cortices were dissected, and meninges were cleared away. Tissues were treated with trypsin solution (trypsin 0.05% (w/v) trypsin-EDTA 5 mM) for 25 min at 37 °C. The tissue was fully disaggregated by pipetting and the dissociated cells were seeded in a 6-well plate with Dulbecco’s modified Eagle’s/High glucose medium enriched with 100 U/mL penicillin, 100 µg/mL streptomycin and 10% FBS. Fresh medium was changed the next day and then every 3 days decreasing the quantity of FBS. All experiments were carried out after 7–9 days of plating.
(§2) Mixed glial cell cultures were divided into 2 groups, one to study A1AR partial agonists and another for A2AAR antagonists. Cells from the first group were pre-treated with 2 µL at three different concentrations of C1 for 15, 30 or 60 min and then with further addition of a pro-inflammatory cocktail of cytokines (TNF-α, 20 ng/mL; IL-1β, 20 ng/mL; IFN-γ 20 ng/mL) for 48 h. […] To study C2 cells were pre-treated with the same CK cocktail for 48 h and then with 2 µL of C2 at three different concentrations for 15, 30, or 60 min (Scheme 1). ZM241385, a well known A2AAR antagonist, was used as reference compound. Furthermore, ligands and CK were tested alone for 15, 30 or 60 min and 48 h respectively.
(§3) 1.7 × 10^4 mixed glial cells were cultured in 98 μL of the specific medium in a 96 well plate overnight. The next day 2 μL of ligand or CK cocktail were added to the well. After all treatments, 20 µL of CellTiter 96® AQueous One Solution Reagent was added in a final volume of 100 µL. Absorbance was read at 490 nm using the plate reader GENiosPro. Cell viability was calculated as percentage using the following formula: Cell viability =OD mean of treated cells/OD mean of control cells × 100

mixed glial cells [2] = test: MTS cell viability in cytokine cocktail (CK) inflammatory model, mixed glial cells
Protocol: as §1, §2, §3

mixed glial cells [3] = test: Griess assay (nitrite production) in mixed glial cells; details: 10 nM, 30 min, after CK cocktail
Protocol: To test the antioxidant capacity of these new molecules Griess assay was performed. The Griess Reagent System is based in the conversion of sulphanilamide into an azo-compound with the presence of N-1-napthylenediamide dihydrochloride (NED) under acidic condition. 1.7 × 10^4 mixed glial cells were cultured in 98 μL of the specific medium in a 96 well plate overnight. After 24 h the media from each well of the cell culture was transferred into a 96 well plate and then 50 µL of the sulphanilamide solution was added to each well. After 5–10 min of incubation at room temperature (rt), 50 µL of the NED Solution were dispensed to all wells and they were incubated at rt for other 5–10 min. Absorbance was measured within 30 min in the plate reader GENiosPro with a filter between 520 nm and 550 nm. This experiment was performed 3–5 replicates. Concentration of NO¬¬¬¬2¯ in each sample was determined by comparison to a Nitrite standard reference curve.

| Structure (SMILES) | cell viability vs. control (mixed glial cells [1]; ligand alone, 5, 10, 60 nM, 15, 30, 60 min) | prevention of CK aggression (cell viability, words) (mixed glial cells [2]; pre-treatment before CK cocktail 48 h, C1 2-30 µM, CCPA 10 nM 30 min) | cell viability vs. control (mixed glial cells [1]; ligand alone, 10 nM, time not stated at the place (highest effect at 30 min)) [%] | cell viability vs. control (mixed glial cells [2]; CK cocktail 20 ng/mL 48 h, then ligand 10 nM for 30 min) [%] | nitrite levels in presence of CK cocktail (mixed glial cells [3]) |
| --- | --- | --- | --- | --- | --- |
| OC[C@H]1O[C@@H](n2cnc3c(NC4CCCC4)nc(Cl)nc32)[C@H](O)[C@@H]1O [CCPA, 2-chloro-N^6-cyclopentyladenosine, reference compound] | did not change cell viability significantly | prevent the CK aggression | – | – | – |
| Nc1nc(NCCc2ccc(O)cc2)nc2nc(-c3ccco3)nn12 [ZM241385, reference compound] | – | – | 135 ± 3.5 | 136 ± 1.7 | able to decrease NO¬¬¬¬2¯ levels induced by CK more than the well know ZM241385 |
